Assay results from patent US10995117B2, “Peptide for skin regeneration or wound treatment and use thereof” (KINE SCIENCES CO., LTD., priority 2016, dated 2021).

Tests used:
[1] = tested on: Col1A1 (collagen type I, alpha 1) mRNA; test: Col1A1 mRNA expression of human dermal fibroblasts (real-time PCR); type: cell-based; details: at a concentration of 10 ng/ml or more
Description: (§1) Collagen is a main ingredient of skin connective tissues, and increased collagen expression is essential in wound healing such as a gash or skin regeneration. As a result, in Example 2, the production ability of collagen of human dermal fibroblasts (HDF) according to the treatment of the peptide (peptide 1) prepared in Example 1 was evaluated by an experimental method disclosed in the existing document (J. Biol. Chem. 1993 268(14): 9941-9944). First, the human dermal fibroblasts were cultured in a DMEM medium added with 10% fetal bovine […] (FBS), and the cultured cells were divided into a 6-well plate at a concentration of 2×10^5 cell/well and cultured for 24 hours, and then the medium was replaced with 2% FBS. After 24 hours from this, the cells were treated with the peptide (100, 10, 1 ng/ml) of the present invention, and thereafter, an amount of procollagen secreted to the culture medium was measured by using a Procollagen Type I C-peptide (PIP) EIA Kit, RNA was extracted with a Trizol reagent, and then the expression of Col1A1 (collagen type I, alpha 1) mRNA of the human dermal fibroblasts was confirmed through real-time PCR. Meanwhile, a separately untreated group (Control) was used as a control group and a TGF-treated group (TGF-) was used as a positive control group.

HaCaT cells = test: Scratch assay, in vitro wound healing model; type: cell-based, human; details: for wound size (quantified) / migration of HaCaT cells: peptide 1 or 10 ng/ml; for migration of HaCaT cells: Mitomycin C pretreated
Description: In Example 5, the wound treatment effect according to the treatment of the peptides (peptides 1 and 2) prepared in Example 1 was confirmed through a scratch assay. A human epithelial cell line, HaCaT cells was cultured for 2 hours by adding Mitomycin C (10 ug/ml) in a serum-free medium to […]. After the cells were treated with the peptide (1 or 10 ng/ml) and TGF-β (1 ng/ml) as a positive control group in a medium added with 10% FBS, the migration ability of cells was observed over time and the reduction in wound size was quantified.

human dermal fibroblasts = test: Procollagen secretion of human dermal fibroblasts (PIP EIA Kit); type: cell-based; details: peptide 100, 10, 1 ng/ml, versus control group and TGF-treated group
Description: as §1

B16F10 cells = test: Melanin production of melanoma cell line; type: cell-based; details: 24 hours
Description: The color of the skin is determined by an amount of melanin pigment produced by melanoma cells, and many studies have been conducted to improve abnormal pigmentation of the skin. Particularly, excessive pigmentation caused by chronic gashes is considered as a major medical problem, but no definitive treatment method has yet been developed. Thus, in Example 2, the production ability of melanin of a melanoma cell line according to the treatment of the peptide (peptide 1) prepared in Example 1 was evaluated by an experimental method disclosed in the existing document (Life Sci. 2013 Aug. 14; 93(5-6):226-32). The melanoma cell line, B16F10 cells, was cultured in a DMEM medium added with 10% fetal bovine […], and the cultured cells were divided into a 12 well-plate at a concentration of 1×10^5 cells/well. After the culture for 24 hours, α-MSH (10 uM) promoting melanin synthesis and the peptide (1, 10, and 100 ng/ml) of the present invention were treated and cultured again for 24 hours, added with 200 μl of a 1N NaOH solution after washing each well with PBS, and then dissolved at 100° C. for 30 minutes. Thereafter, the absorbance was measured at 405 nm with an ELISA reader to confirm the amount of melanin produced from the melanoma cell line. Meanwhile, an untreated group was used as a control group and a α-MSH-treated group was used as a positive control group.

Balb/c nude mouse [2] = test: Acute wound animal model, histological change (H&E staining); type: in vivo; details: skin tissue on day 5 after acute wound
Description: (§2) After an 8-week-old Balb/c nude mouse was anesthetized with Avertin (2.5%), the skin of the animal's back was cut by using a circular punch having a 10 mm diameter to induce an acute wound. The peptide was treated (500 ng/one time) at the site of excision total 5 times at 24-hour intervals at the site of excision and reduction of the wound area over time was measured for 14 days and an EGF was used as a positive control group (10 ug/one time). In this case, the peptide was treated with 20% pluronic F-127 (PBS) in a mixture state and the wound sizes over time were measured and digitized using a digital camera and an ImageJ program and compared with each other.
An acute wound was induced in the same manner as in Example 6-1, and the skin tissue was cut on 5 day after the acute wound was induced to prepare tissue fragments. Thereafter, histological changes according to peptide treatment were observed by H&E staining and observing the H&E staining by a microscope. Meanwhile, an EGF was used as a positive control group.

tyrosinase = target: T1, tyrosinase (Mus musculus, UniProt P11344); test: Tyrosinase activity of melanoma cell line (L-DOPA); type: cell-based; details: 24 hours
T1 construct: endogenous in cells; host or cells: B16F10 melanoma cells stimulated with alpha-MSH; Triton X-100 lysate supernatant
T1 sequence (P11344 19-533): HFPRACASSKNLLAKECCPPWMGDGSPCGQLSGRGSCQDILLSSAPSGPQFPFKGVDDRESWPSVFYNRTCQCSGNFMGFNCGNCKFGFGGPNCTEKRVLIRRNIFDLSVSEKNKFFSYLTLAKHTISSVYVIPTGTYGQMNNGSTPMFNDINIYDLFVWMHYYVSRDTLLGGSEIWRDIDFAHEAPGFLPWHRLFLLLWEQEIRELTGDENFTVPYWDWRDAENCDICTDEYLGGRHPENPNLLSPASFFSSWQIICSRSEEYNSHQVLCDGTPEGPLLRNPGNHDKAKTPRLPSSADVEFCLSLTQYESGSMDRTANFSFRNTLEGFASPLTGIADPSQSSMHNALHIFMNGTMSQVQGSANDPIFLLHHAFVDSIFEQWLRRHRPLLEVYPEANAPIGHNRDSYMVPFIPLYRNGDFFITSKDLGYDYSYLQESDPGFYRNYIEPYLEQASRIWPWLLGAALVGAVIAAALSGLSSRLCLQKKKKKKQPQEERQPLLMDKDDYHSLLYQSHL
Description: Tyrosinase as a rate-regulating enzyme that catalyzes the reaction in the melanin biosynthesis process was known to play a crucial role in regulating the amount of melanin in the cells. Thus, in Example 4, the tyrosinase activity of the melanoma cell line according to the treatment of the peptide (peptide 1) prepared in Example 1 was evaluated by an experimental method disclosed in the existing document (J. Dermatol. Sci. Vol. 57 (2010) 170-177). The melanoma cell line, B16F10 cells, was divided into a 12 well-plate at a concentration of 1×10^5 cells/well and cultured for 24 hours, and then treated with α-MSH ([…]) and the peptide of the present invention (1, 10, 100 ng/ml), cultured for 24 hours again, and then was washed with PBS and suspended in a 50 mM phosphate buffer (pH 6.8) containing 1% Triton X-100 after washing each well with PBS. After vortexing, the cells was frozen at […] for 30 minutes, dissolved at room temperature, and centrifuged at 1000 g for 10 minutes, and then 40 μl of a supernatant and 100 μl of 10 mM L-DOPA were added to a 96 well-plate and reacted at 37° C. Thereafter, the absorbance was measured at 405 nm with an ELISA reader to confirm the tyrosinase activity of the melanoma cell line. Meanwhile, a separate untreated group was used as a control group and a α-MSH-treated group and a Kojic acid-treated group were used as a positive control group.

Balb/c nude mouse [3] = test: Acute wound animal model, change in wound size; type: in vivo; details: 10 mm punch wound, 500 ng/one time, 5 times at 24-hour intervals, 14 days
Description: as §2

tyrosinase activity of the melanoma cell line (tyrosinase; B16F10 cells)	Substance	expression of Col1A1 [1]	wound size (quantified) (HaCaT cells; HaCaT cells)	migration of HaCaT cells (HaCaT cells)	secretion amount of procollagen (human dermal fibroblasts)	production amount of melanin (B16F10 cells; α-MSH (10 uM) plus peptide 1, 10, 100 ng/ml, no significant difference from non-α-MSH-treated group)	epithelialization (Balb/c nude mouse [2])	thicknesses of epidermis and dermis layers (Balb/c nude mouse [2])	tyrosinase activity of the melanoma cell line (tyrosinase; B16F10 cells, 10, 100 ng/ml, no significant difference from Kojic acid-treated group)	wound reduction effect at low concentration (HaCaT cells; HaCaT cells, 1 ng/ml)	wound size effect compared with peptide 1 (HaCaT cells; HaCaT cells, 1 or 10 ng/ml)	wound treatment effect compared with peptide 1 (Balb/c nude mouse [3])	amount of melanin produced (B16F10 cells; α-MSH (10 uM) alone)
–	REGRT (peptide 1)	significantly increased	significant reduction	increased in a peptide concentration-dependent manner	increased compared to the control group and the TGF-treated group	greatly reduced	actively progressed	larger than those of a PBS negative control group	greatly reduced	–	–	–	–
–	REGRTREGRT (peptide 2)	–	significant reduction	increased in a peptide concentration-dependent manner	–	–	actively progressed	larger than those of a PBS negative control group	–	definite wound reduction effect	more remarkable	excellent effect as compared to the case treated with the peptide 1	–
greatly increased	α-MSH [reference compound]	–	–	–	–	–	–	–	–	–	–	–	a large amount of melanin was produced
